From patent publication EP1242382B1, “TRICYCLIC PROTEIN KINASE INHIBITORS” (Wyeth, priority 1999, dated 2001)
In brackets after ≈: the same amount, converted by molar mass.

Assays:
[1] = target: T1, EGF-R Kinase (recombinant enzyme) (Homo sapiens, UniProt P00533); experiment: Inhibition of Epidermal Growth Factor Receptor Kinase (EGF-R) using recombinant enzyme; type: biochemical; conditions: RR-SRC peptide substrate, (a) = average of two tests
T1 construct: EGFR cDNA encoding amino acids 645 - 1186 preceded by Met-Ala-(His)6; made in house; host or cells: Sf9 insect cells, recombinant baculovirus vHcEGFR52
Protocol: Representative test compounds are evaluated in a standard pharmacological test procedure to measure their ability to inhibit the phosphorylation of the tyrosine residue of a peptide substrate catalyzed by the enzyme epidermal growth factor receptor kinase. […] The enzyme used in this assay is the His-tagged cytoplasmic domain of EGFR. […] Sf9 cells in 100 mm plates are infected at a multiplicity of infection of 10 pfu/cell and cells are harvested 48 h post infection. A cytoplasmic extract is prepared using 1% Triton X-100 and applied to Ni-NTA column. After washing the column with 20 mM imidazole, HcEGFR is eluted with 250 mM imidazole (in 50 mM Na2HPO4, pH 8.0, 300 mM NaCl). Fractions collected are dialyzed against 10 mM HEPES, pH 7.0, 50 mM NaCl, 10% glycerol, 1ug/mL antipain and leupeptin and 0.1 mM Pefabloc SC. The protein is frozen in dry ice/methanol and stored -70°C.
Test compounds are made into 10 mg/mL stock solutions in 100% dimethylsulfoxide (DMSO). Prior to experiment, stock solutions are diluted to 500 uM with 100% DMSO and then serially diluted to the desired concentration with HEPES buffer (30 mM HEPES pH 7.4).
For the enzyme reaction, 10 uL of each inhibitor (at various concentrations) are added to each well of a 96-well plate. To this is added 3 uL of enzyme (1:10 dilution in 10mM HEPES, pH 7.4 for final conc. of 1:120). This is allowed to sit for 10 min on ice and is followed by the addition of 5 ul peptide (80 uM final conc.), 10ul of 4X Buffer containing 50 mM HEPES (pH 7.4), 200 mM Na3VO4, 40mM MnCl2, 80 uM ATP, 0.25 uL ^33P-ATP (>2500 Ci/mmol; Amersham) and 12 uL H2O. The reaction is allowed to run for 90 min at room temperature and is followed by spotting the entire volume onto precut P81 filter papers. The filter discs are washed 2X with 0.5% phosphoric acid and radioactivity is measured using a liquid scintillation counter.
The % inhibition of the test compound is determined for at least three different concentrations and the IC50 value is evaluated from the dose response curve. […] CPM(control) is in units of counts per minute and is a number expressing the amount of radiolabled ATP (γ-^33P) incorporated into the RR-SRC peptide substrate by the enzyme after 90 minutes at room temperature in the absence of test compound as measured by liquid scintillation counting. The CPM values are corrected for the background counts produced by ATP in the absence of the enzymatic reaction.

p60^c-src (Src) = target: T2, p60^c-src (Src) (Homo sapiens, UniProt P12931); experiment: Src kinase test procedure (Elisa format); type: biochemical
T2 construct: purchased Upstate Biotechnologies
Protocol: Inhibitors of p60^c-src (partially purified preparation purchased from Upstate Biotechnologies) tyrosine kinase activity are analyzed in an Elisa format. […] HRP-conjugated anti-phosphotyrosine is used to detect phosphorylated peptide via a color reaction. Conditions recommended by the manufacturer are employed.
Reaction conditions: Five microliter aliquots of each compound prepared fresh at the time of the assay are added as a solution in 10mM HEPES pH 7.5, 10% DMSO to the reaction well. Thirty-five microliters of reaction mix containing Src, buffer and peptide/bovine serum albumin mix are added to the compound wells and incubated at 30°C for 10 minutes (reaction buffer: 50mM TrisHCl pH 7.5, 10mM MgCl2, 0.1mM EGTA, 0.5mM Na3VO4). The reaction is started by addition of 10 microliters of ATP, incubated at 30°C for 1 hour, and stopped by addition of 20 microliters of 0.5M EDTA. The reaction mixture with the phosphorylated peptide is then transferred to a streptavidin-coated microtiter plate (provided in the kit) and allowed to bind for 20 minutes. Unbound peptide and reaction mixture is decanted and the plate is washed with PBS six times. Horseradish peroxidase-conjugated phosphotyrosine antibody supplied in the kit is incubated with the plate for one hour, then decanted. The plate is again washed with PBS six times.

A431 = experiment: Inhibition of cancer cell growth as measured by cell number (Sulforhodamine B); type: cell-based; conditions: Homo sapiens, A-431; 48 hours exposure
Protocol: (§1) Human tumor cell lines are plated in 96-well plates (250 µl/well, 1-6 x 10^4 cells/ml) in RPMI 1640 medium, containing 5% FBS (Fetal Bovine Serum). Twenty four hours after plating, test compounds are added at various concentrations. After 48 hours exposure to test compounds, cells are fixed with trichloroacetic acid, and stained with Sulforhodamine B. After washing with trichloroacetic acid, bound dye is solubilized in 10 mM Tris base and optical density is determined using plate reader. Under conditions of the assay the optical density is proportional to the number of cells in the well. […] The test procedure is described in detail by Philip Skehan et. al, J. Natl. Canc. Inst., 82, 1107-1112 (1990). […] Information about some of the cell lines used in these test procedures is available from the American Type Tissue Collection: Cell Lines and Hybridomas, 1994 Reference Guide, 8th Edition.

MDA-MB-435 = experiment: as above; type: cell-based; conditions: Homo sapiens, 48 hours exposure
Protocol: as §1

SK-BR3 = experiment: as above; type: cell-based; conditions: Homo sapiens, SK-BR-3; 48 hours exposure
Protocol: as §1

SW620 = experiment: as above; type: cell-based; conditions: Homo sapiens, SW-620; 48 hours exposure
Protocol: as §1

[2] = tested on: Rat2 fibroblasts stably transformed with v-Src/Hu c-Src fusion gene; experiment: Anchorage independent Src-transformed fibroblast proliferation test procedure; type: cell-based; conditions: Rattus norvegicus, the 3rd table c6, (a)-(d) = average of two to five runs, read-out: Src TF prolif IC50
From the text: Anchorage Independent Src-transformed Fibroblast Proliferation Test Procedure: Rat2 fibroblasts stably transformed with a plasmid containing a CMV promotor controlled v-Src/Hu c-Src fusion gene in which the catalytic domain of human c-Src is inserted in place of the v-Src catalytic domain in the v-Src gene are used for the measurement of src dependent suspension growth.

T2 sequence (P12931 whole entry): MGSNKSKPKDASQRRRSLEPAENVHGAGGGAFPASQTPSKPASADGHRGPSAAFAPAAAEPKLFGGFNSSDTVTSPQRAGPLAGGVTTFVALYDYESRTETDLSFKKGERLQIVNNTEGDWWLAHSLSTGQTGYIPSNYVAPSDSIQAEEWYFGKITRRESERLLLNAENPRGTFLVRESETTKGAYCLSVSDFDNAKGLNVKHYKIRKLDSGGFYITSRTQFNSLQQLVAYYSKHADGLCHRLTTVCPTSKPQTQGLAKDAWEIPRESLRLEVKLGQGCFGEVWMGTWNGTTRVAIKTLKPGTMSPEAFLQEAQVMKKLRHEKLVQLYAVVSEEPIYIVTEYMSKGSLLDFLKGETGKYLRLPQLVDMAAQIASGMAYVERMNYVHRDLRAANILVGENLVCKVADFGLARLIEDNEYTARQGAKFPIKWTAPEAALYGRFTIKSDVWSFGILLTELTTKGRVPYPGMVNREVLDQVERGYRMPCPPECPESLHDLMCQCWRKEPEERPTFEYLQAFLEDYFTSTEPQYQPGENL
T1 sequence (P00533 669-1210): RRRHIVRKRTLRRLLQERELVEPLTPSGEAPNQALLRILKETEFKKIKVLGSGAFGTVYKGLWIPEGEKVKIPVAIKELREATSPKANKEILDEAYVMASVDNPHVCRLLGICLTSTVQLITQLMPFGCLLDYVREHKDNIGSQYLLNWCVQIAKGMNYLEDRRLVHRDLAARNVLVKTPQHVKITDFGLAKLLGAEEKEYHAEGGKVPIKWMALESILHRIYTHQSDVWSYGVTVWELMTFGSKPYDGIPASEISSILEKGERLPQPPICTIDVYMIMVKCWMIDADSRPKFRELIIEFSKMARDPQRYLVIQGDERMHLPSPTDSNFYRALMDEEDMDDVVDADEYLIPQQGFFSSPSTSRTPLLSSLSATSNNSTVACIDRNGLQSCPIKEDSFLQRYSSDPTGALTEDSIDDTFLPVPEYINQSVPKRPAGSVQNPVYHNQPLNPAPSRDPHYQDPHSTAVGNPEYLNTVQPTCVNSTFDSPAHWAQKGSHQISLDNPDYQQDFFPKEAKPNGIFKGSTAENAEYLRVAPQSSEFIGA

SMILES	IC50 [1] [nM]	inhibition at 10 µM (p60^c-src (Src); dose 10 µM, read-out: Src %Inh) [%]	IC50 (A431) [µg/mL]	IC50 (MDA-MB-435) [µg/mL]	IC50 (SK-BR3) [µg/mL]	IC50 (SW620) [µg/mL]	inhibition at 0.01 µM (p60^c-src (Src); dose 0.01 µM, read-out: Src %Inh) [%]	inhibition at 1 µM (p60^c-src (Src); dose 1 µM, read-out: Src %Inh) [%]	Src %Inh (p60^c-src (Src); dose 10 µM) [%]	IC50 [2] [nM]
N#Cc1cnc2c(sc3ccc([N+](=O)[O-])cc32)c1Nc1ccc(Cl)cc1Cl [Example 90, 4-(2,4-Dichloroanilino)-8-nitro[1]benzothieno[3,2-b]pyridine-3-carbonitrile]			0.41 (≈ 0.987 µM)	0.46 (≈ 1.11 µM)	0.59 (≈ 1.42 µM)	0.67 (≈ 1.61 µM)		0		
N#Cc1cnc2c(c1Nc1cccc(Br)c1)C=C1N=CN=C1C2 [Example 37, 8-(3-Bromo-phenylamino)imidazo[4,5-g]quinoline-7-carbonitrile]	1.5		0.58 (≈ 1.59 µM)	3.48 (≈ 9.56 µM)	0.6 (≈ 1.65 µM)	3.72 (≈ 10.2 µM)				
C=CC(=O)Nc1ccc2sc3c(Nc4cccc(Br)c4)c(C#N)cnc3c2c1 [Example 93, N-[4-(3-Bromoanilino)-3-cyano[1]benzothieno[3,2-b]pyridin-8-yl]acrylamide]			0.838 (≈ 1.86 µM)	1.69 (≈ 3.76 µM)	0.224 (≈ 0.499 µM)	1 (≈ 2.23 µM)				
N#Cc1cnc2cc3ccccc3cc2c1Nc1ccc(F)c(Cl)c1 [Example 4, 4-(3-Chloro-4-fluoroanilino)benzo[g]quinoline-3-carbonitrile]	5		0.332 (≈ 0.955 µM)	1.65 (≈ 4.74 µM)	1.01 (≈ 2.9 µM)	1.08 (≈ 3.11 µM)				

Further lines, with some results ahead:

IC50 [1] [nM]	inhibition at 10 µM (p60^c-src (Src); dose 10 µM, read-out: Src %Inh) [%]	IC50 (A431) [µg/mL]	IC50 (MDA-MB-435) [µg/mL]	IC50 (SK-BR3) [µg/mL]	IC50 (SW620) [µg/mL]	inhibition at 0.01 µM (p60^c-src (Src); dose 0.01 µM, read-out: Src %Inh) [%]	inhibition at 1 µM (p60^c-src (Src); dose 1 µM, read-out: Src %Inh) [%]	Src %Inh (p60^c-src (Src); dose 10 µM) [%]	SMILES	IC50 [2] [nM]
1000	7	> 5	> 5	> 5	> 5				N#Cc1cnc2c(sc3ccccc32)c1Nc1cccc(Br)c1 [Example 65, 4-(3-Bromophenylamino)benzo[4,5]thieno[3,2-b]pyridine-3-carbonitrile]	
		> 5	> 5	> 5	> 5				N#Cc1cnc2c(sc3ccc(N)cc32)c1Nc1cccc(Br)c1 [Example 92, 8-Amino-4-(3-bromoanilino)-[1]benzothieno[3,2-b]pyridine-3-carbonitrile]	
		0.58 (≈ 1.46 µM)	0.85 (≈ 2.15 µM)	> 5	0.38 (≈ 0.959 µM)	10			N#Cc1cnc2cc3cc(O)c(O)cc3cc2c1Nc1ccc(Cl)cc1Cl [Example 15, 4-(2,4-Dichloroanilino)-7,8-dihydroxybenzo[g]quinoline-3-carbonitrile]	
1890		0.76 (≈ 1.5 µM)		0.04 (≈ 0.0789 µM)	0.36 (≈ 0.71 µM)				COc1cc2cc3ncc(C#N)c(Nc4ccc(F)c(Cl)c4)c3cc2cc1OCCN1CCOCC1 [Example 212, 4-(3-Chloro-4-fluoroanilino)-8-methoxy-7-[2-(4-morpholinyl)ethoxy]benzo[g]quinoline-3-carbonitrile]	> 10000
100		1.11 (≈ 2.47 µM)	3.9 (≈ 8.68 µM)	1.09 (≈ 2.43 µM)	> 5				C=CC(=O)Nc1cccc2c1sc1c(Nc3cccc(Br)c3)c(C#N)cnc12 [Example 94, N-[4-(3-Bromoanilino)-3-cyano[1]benzothieno[3,2-b]pyridin-6-yl]acrylamide]	
1000	53	> 5	> 5	> 5	> 5			44	N#Cc1cnc2c(oc3ccccc32)c1Nc1cccc(Br)c1 [Example 85, 4-(3-Bromophenylamino)benzo[4,5]furo[3,2-b]pyridine-3-carbonitrile]	
